In patent US20100076013A1, “Methods of Treatment” (Novartis AG, priority 2006, published 2010):

Legend:
MV-4-11 = test: CellTiter-Glo cell viability assay; type: cell-based; conditions: Homo sapiens, MV4-11; MV-4-11, AML; 72 hours
Description: (§1) See Kelly et al. (2002). […] See Cools et al. (2004).
(§2) The EC50s were determined using CellTiter-Glo (Promega), a bioluminescent, cell viability assay measuring ATP levels in viable cells. Cells were plated in assay plates and incubated with a range of compound concentrations for 72 hours. Cells were lysed and ATP levels were determined using CellTiter-Glo reagent on a luminometer according to manufacturer's instructions. EC50 refers to the concentration of compound that inhibited 50% of cell growth.

MOLT-3 = test: CellTiter-Glo cell viability assay; type: cell-based; conditions: Homo sapiens; MOLT-3, T-ALL; 72 hours
Description: as §2

NALM-1 = test: CellTiter-Glo cell viability assay; type: cell-based; conditions: NALM-1, CML; 72 hours
Description: as §2

CEM/C2 = test: CellTiter-Glo cell viability assay; type: cell-based; conditions: Homo sapiens; CEM/C2, T-ALL; 72 hours
Description: as §2

CCRF-HSB-2 = test: CellTiter-Glo cell viability assay; type: cell-based; conditions: Homo sapiens; CCRF-HSB-2, T-ALL; 72 hours
Description: as §2

PL-21 = test: CellTiter-Glo cell viability assay; type: cell-based; conditions: PL-21, AML; 72 hours
Description: as §2

L-428 = test: CellTiter-Glo cell viability assay; type: cell-based; conditions: Homo sapiens; L-428, HL; 72 hours
Description: as §2

JK-1 = test: CellTiter-Glo cell viability assay; type: cell-based; conditions: JK-1, CML; 72 hours
Description: as §2

D1.1 = test: CellTiter-Glo cell viability assay; type: cell-based; conditions: D1.1, T-ALL; 72 hours
Description: as §2

EOL-1 = test: CellTiter-Glo cell viability assay; type: cell-based; conditions: Homo sapiens, EOL1; EOL-1, AML; 72 hours
Description: as §2

JURL-MK2 = test: CellTiter-Glo cell viability assay; type: cell-based; conditions: JURL-MK2, CML; 72 hours
Description: as §2

NOMO-1 = test: CellTiter-Glo cell viability assay; type: cell-based; conditions: Homo sapiens; NOMO-1, AML; 72 hours
Description: as §2

CCRF-CEM = test: CellTiter-Glo cell viability assay; type: cell-based; conditions: Homo sapiens, T-ALL, 72 hours
Description: as §2

KU812 = test: CellTiter-Glo cell viability assay; type: cell-based; conditions: Homo sapiens; KU812, CML; 72 hours
Description: as §2

HSB-2 = test: CellTiter-Glo cell viability assay; type: cell-based; conditions: HSB2; HSB-2, T-ALL; 72 hours
Description: as §2

RL = test: CellTiter-Glo cell viability assay; type: cell-based; conditions: Homo sapiens, B-NHL, 72 hours
Description: as §2

Karpas-299 = test: CellTiter-Glo cell viability assay; type: cell-based; conditions: Homo sapiens; Karpas-299, ALCL; 72 hours
Description: as §2

CEM/C1 = test: CellTiter-Glo cell viability assay; type: cell-based; conditions: CEM/C1, T-ALL; 72 hours
Description: as §2

EM-2 = test: CellTiter-Glo cell viability assay; type: cell-based; conditions: Homo sapiens; EM-2, CML; 72 hours
Description: as §2

LAMA-84 = test: CellTiter-Glo cell viability assay; type: cell-based; conditions: Homo sapiens; LAMA-84, CML; 72 hours
Description: as §2

ML-2 = test: CellTiter-Glo cell viability assay; type: cell-based; conditions: Homo sapiens; ML-2, AML; 72 hours
Description: as §2

JURL-MK1 = test: CellTiter-Glo cell viability assay; type: cell-based; conditions: JURL-MK1, CML; 72 hours
Description: as §2

EM-3 = test: CellTiter-Glo cell viability assay; type: cell-based; conditions: EM-3, CML; 72 hours
Description: as §2

Kasumi-1 = test: CellTiter-Glo cell viability assay; type: cell-based; conditions: Homo sapiens; Kasumi-1, AML; 72 hours
Description: as §2

KARPAS-45 = test: CellTiter-Glo cell viability assay; type: cell-based; conditions: KARPAS-45, T-ALL; 72 hours
Description: as §2

Reh = test: CellTiter-Glo cell viability assay; type: cell-based; conditions: Homo sapiens, B-ALL, 72 hours
Description: as §2

SR = test: CellTiter-Glo cell viability assay; type: cell-based; conditions: Homo sapiens, LCIL, 72 hours
Description: as §2

KE-37 = test: CellTiter-Glo cell viability assay; type: cell-based; conditions: Homo sapiens; KE-37, T-ALL; 72 hours
Description: as §2

NB-4 = test: CellTiter-Glo cell viability assay; type: cell-based; conditions: Homo sapiens; NB-4, AML; 72 hours
Description: as §2

OCI-AML3 = test: CellTiter-Glo cell viability assay; type: cell-based; conditions: Homo sapiens, OCI-AML-3, 72 hours
Description: as §2

[1] = test system: wild-type FLT3-expressing Ba/F3 cells; conditions: FIG. 3
Description: (§3) The IL-3-dependent murine hematopoietic cell line Ba/F3 are transduced with either FLT3-ITD or FLT3-D835Y-containing MSCV retroviruses harboring a neomycin selectable marker, and selected for resistance to neomycin. See Kelly et al. (2002). FLT3-ITD transduced cells are selected for growth in G418 (1 mg/mL). PKC412-resistant Ba/F3 cell lines, which express FLT3-ITD harboring a mutation in the ATP-binding pocket (F691L, A627T, G697R, N676D), are developed as described previously. See Cools et al. (2004). The human AML-derived, FLT3-ITD-expressing cell line, MV4; 11 [see Quentmeier et al. (2003)], is provided by Dr. Scott Armstrong, Dana Farber Cancer Institute, Boston, Mass. The human AML-derived, FLT3-ITD-expressing cell line, MOLM-13, is modified to express luciferase and provided as MOLM13-luc+ by Dr. Andrew Kung, Dana Farber Cancer Institute, Boston, Mass. All cell lines are cultured with 5% CO2 at 37° C., at a concentration of 2×10^5 to 5×10^5 in RPMI (Mediatech, Inc., Herndon, Va.) with 10% fetal calf serum and supplemented with 1% glutamine. Parental Ba/F3 cells expressing wild-type FLT3 are similarly cultured with 15% WEHI-conditioned medium as a source of IL-3. All transfected cell lines are cultured in media supplemented with 1 mg/mL G418.
(§4) N-[1-cyclohexyl-2-oxo-2-(6-phenethyl-octahydro-pyrrolo[2,3-c]pyridin-1-yl-ethyl]-2-methylamino-propionamide is synthesized by Novartis Pharma AG, Basel, Switzerland, and dissolved in DMSO to make 10 mM stock solutions. Serial dilutions are then made, also in DMSO, to obtain final dilutions for cellular assays.
(§5) The trypan blue exclusion assay has been previously described [see Weisberg et al. (2002)], and is used to determine proliferation of cells cultured in the presence and absence of LBW242. Cell viability is reported as percentage of control (untreated) cells. Error bars represent the standard error of the mean for each data point. Apoptosis of drug-treated cells is measured using the Annexin-V-Fluos Staining Kit (Boehringer Mannheim, Indianapolis, Ind.), as previously described. See Weisberg et al. (2002).

FLT3-ITD-Ba/F3 [2] = conditions: PKC412-sensitive line FLT3-ITD-Ba/F3; FIGS. 1-2
Description: as §3, §4, §5

[3] = test system: FLT3-ITD-Ba/F3 cells expressing firefly luciferase; test: Mouse model of acute leukemia, tumor burden by bioluminescence imaging; type: in vivo, NCr nude mice; conditions: for Student t-test p of bioluminescence (tumor burden), vehicle versus compound alone: 50 mg/kg oral gavage, NCr nude mice
Description: FIG. 4 illustrates NCR nude mice injected with 800,000 Ba/F3-FLT3-ITD-luc+ cells via IV tail vein, and then treated for up to 10 days by oral gavage with vehicle (NMP+PEG300), LBW242 (50 mg/kg).

[4] = test system: Mutant FLT3-expressing cells
Description: as §3

FLT3-ITD-Ba/F3 [5] = conditions: 1 μM, following 2 days and 3 days, respectively
Description: as §3, with “Parental Ba/F3 cells expressing wild-type FLT3 are similarly cultured with 15% WEHI-conditioned medium as a source of IL-3. All transfected cell lines are cultured in media supplemented with 1 mg/mL G418.” left out
The trypan blue exclusion assay has been previously described [see Weisberg et al. (2002)], and is used to determine proliferation of cells cultured in the presence and absence of LBW242. […] Apoptosis of drug-treated cells is measured using the Annexin-V-Fluos Staining Kit (Boehringer Mannheim, Indianapolis, Ind.), as previously described. […]

[6] = test system: PKC412-sensitive and resistant mutant FLT3-expressing cells
Description: as §5

[7] = test system: mutant FLT3-expressing cells; conditions: annexin-pi staining and caspase assays; effective concentrations in the micromolar range
Description: as §5

D835Y-Ba/F3 cells = test: Trypan blue exclusion proliferation assay; type: cell-based, murine; conditions: PKC412-sensitive line D835Y-Ba/F3; three-day treatment, FIG. 3
From the text: as §1
(§6) See Weisberg et al. (2002).

G697R-Ba/F3 [8] = test: Trypan blue exclusion proliferation assay; type: cell-based, murine; conditions: PKC412-resistant line G697R-Ba/F3; FIGS. 1-2
From the text: as §1, §6

G697R-Ba/F3 [9] = test: Induction of apoptosis (Annexin-V staining) and caspase activity; type: cell-based, murine; conditions: 1 μM, following 2 days and 3 days, respectively
From the text: as §1, §6

CN[C@@H](C)C(=O)N[C@H](C(=O)N1CCC[C@H]1c1nc(C(=O)c2ccc(F)cc2)cs1)C1CCCCC1 [(S)—N—((S)-1-Cyclohexyl-2-{(S)-2-[4-(4-fluoro-benzoyl)-thiazol-2-yl]-pyrrolidin-1-yl}-2-oxo-ethyl)-2-methylamino-propionamide]
EC50 (MV-4-11): 14 µM | EC50 (MOLT-3): 10.2 µM | EC50 (NALM-1): 3.54 µM | EC50 (CEM/C2): 3.83 µM | EC50 (CCRF-HSB-2): 6.3 µM | EC50 (PL-21): 3.55 µM | EC50 (L-428): 7.3 µM | EC50 (JK-1): 3.49 µM | EC50 (D1.1): 7.35 µM | EC50 (EOL-1): 1.66 µM | EC50 (JURL-MK2): 12.7 µM | EC50 (NOMO-1): 4.08 µM | EC50 (CCRF-CEM): 0.676 µM | EC50 (KU812): 1.94 µM | EC50 (HSB-2): 0.4 µM | EC50 (RL): 9.68 µM | EC50 (Karpas-299): 10.8 µM | EC50 (CEM/C1): 4.6 µM | EC50 (EM-2): 0.696 µM | EC50 (LAMA-84): 0.203 µM | EC50 (ML-2): 0.015 µM | EC50 (JURL-MK1): 11.8 µM | EC50 (EM-3): 13.8 µM | EC50 (Kasumi-1): 8.64 µM | EC50 (KARPAS-45): 10.5 µM | EC50 (Reh): 0.0791 µM | EC50 (SR): 11.6 µM | EC50 (KE-37): 5.1 µM | EC50 (NB-4): 0.0146 µM | EC50 (OCI-AML3): 4.08 µM

CNC(C)C(=O)NC(C(=O)N1CCC2CCN(CCc3ccccc3)CC21)C1CCCCC1 (centres unmarked) [N-[1-cyclohexyl-2-oxo-2-(6-phenethyl-octahydro-pyrrolo[2,3-c]pyridin-1-yl-ethyl]-2-methylamino-propionamide]
concentrations that led to death of the cells [1]: > 1 µM | inhibitory effects on cell growth ([1]; concentrations ≦1 μM): no inhibitory effects | doses at which activity is displayed against the cells in culture (FLT3-ITD-Ba/F3 [2]): ≥ 1 µM | Student t-test p of bioluminescence (tumor burden), vehicle versus compound alone ([3]; day 5 post-IV injection): ≤ 0.0773 | Student t-test p of bioluminescence (tumor burden), vehicle versus compound alone ([3]; day 7 post-IV injection): ≤ 0.05625 | tolerability of doses effective against mutant FLT3 ([3]; in vivo): well-tolerated | rescue of treated cells from cytotoxic effects by WEHI (source of IL-3) [4]: did not rescue | induction of apoptosis and caspase activity (FLT3-ITD-Ba/F3 [5]): found | inhibition of cells in vitro [6]: inhibits | induction of apoptosis [7]: modestly observed | doses at which activity is displayed against the cells in culture (D835Y-Ba/F3 cells): ≥ 1 µM | doses at which activity is displayed against the cells in culture (G697R-Ba/F3 [8]): ≥ 1 µM | induction of apoptosis and caspase activity (G697R-Ba/F3 [9]): found

CO[C@@H]1[C@H](N(C)C(=O)c2ccccc2)C[C@H]2O[C@]1(C)n1c3ccccc3c3c4c(c5c6ccccc6n2c5c31)C(=O)NC4 [PKC412, reference compound]
rescue of treated cells from cytotoxic effects by WEHI (source of IL-3) [4]: fully rescued
